{"source": "patent US12616759B2", "about": "“Uses of labeled HSP90 inhibitors” (Sloan-Kettering Institute for Cancer Research, priority 2011, dated 2026)", "key": {"oncogenic HSP90 [1]": {"tested_on": "oncogenic HSP90", "assay": "PU-FITC binding to EpCAM+ circulating tumor cells in PBMCs", "assay_type": "cell-based, human", "conditions": "CTCs, patient with HER2+ metastatic breast cancer", "protocol": "FIGS. 20A and 20B. PU-H71-FITC2 accumulation in EpCAM+ Circulating Tumor Cells: PBMC's isolated from whole blood were pre-treated with PU-FITC or controls (PU-FITC9, DMSO, 1 μM/2×10^6 cells/ml, 4 hrs). Cells were then stained with CD45, CD14 and EpCAM antibodies. FIG. 20A Cells are gated to exclude dead cells. Viable cells are then gated to determine EpCAM+vs CD45+ cells. Monocytes are excluded from the analysis by gating the CD45+ cells further as FSC vs. CD14. FIG. 20B Histogram plots showing the PU-FITC Median florescence intensity (MFI) of CD45+CD14− cells (blue) and EpCAM+ cells (Red). The drug accumulation in EpCAM+ cells is calculated as the ratio of MFI EpCAM+/MFI CD45+CD14− (circulating tumor cells/leukocytes) after subtracting the values of the DMSO and PU-FITC9 controls (used to control for non-specific and background binding).\nMeasure PU-FITC binding to EpCAM+ circulating tumor cells in PBMC's: All experimental blood sampling procedures were performed under the Institutional Review Board-approved protocols at Memorial Sloan Kettering Cancer Center. […] PBMC's are isolated on ficoll gradients, cells are counted and viability determined by trypan blue dye exclusion assay. PBMC's are spun down and re-suspended to 2×10^6 cells/ml. […] Values are calculated as a ratio of the MFI of Tumor (EpCAM+CD45−CD14−): MFI of EpCAM-CD45+CD14− cells. […]"}, "MV4-11 and MOLM-13 cells": {"tested_on": "MV4-11 and MOLM-13 cells", "assay": "fluorescent PU-H71 derivatives in AML cell lines: flow cytometry, viability"}, "oncogenic HSP90 [2]": {"tested_on": "oncogenic HSP90", "assay": "PU-H71-FITC2 binding to primary leukemia blasts relative to normal lymphocytes, flow cytometry", "assay_type": "cell-based, human", "conditions": "blast crisis CML cells", "protocol": "Cell viability was analyzed by flow cytometry (BD Biosciences). […] Cells were washed and then analyzed by flow cytometry. Normal mouse IgG2a-PE was used as isotype control.\nAnalysis is performed using FlowJo software."}, "oncogenic HSP90 [3]": {"tested_on": "oncogenic HSP90", "assay": "PU-H71-FITC2 binding to pancreatic and breast cancer cell lines relative to HL-60 versus viability"}, "in vivo": {"assay": "in vivo", "conditions": "3×Tg AD, mouse"}, "HSP70": {"tested_on": "HSP70", "assay": "HSP70 induction in hippocampus of 3×Tg AD mice", "assay_type": "in vivo", "conditions": "i.p., 24 h", "protocol": "FIGS. 43A, 43B, and 43C. 8-10 mo 3×Tg mice were administered 75 mg/kg (FIG. 43A) or the indicated dose of the HSP90 inhibitor PU-HZ151 (FIG. 43B) and the PD marker, HSP70, was measured in hippocampus, an afflicted brain region in this model of AD, at 24 h post-administration. HSP70 is induced when HSP90 is inhibited and its induction is an indicator that therapeutic levels of the HSP90 inhibitor were delivered to the brain region of interest. FIG. 43C: Levels of the HSP90 inhibitor in the indicated brain regions and plasma were determined by LC-MS/MS after the administration of 50 mg/kg PU-HZ151. Hsp90 inhibitor levels at different times after single ip injection are shown in micromolar units. Brain exposure was also measured as the area under the curve (AUC).\nPharmacodynamic analyses. For protein analysis, selected brain region (hippocampus) was homogenized in SDS lysis buffer (50 mM Tris pH 7.4, 2% SDS) and subjected to Western blot analysis. Levels of proteins were be analyzed by immunoblotting with anti-Hsp70 and Hsp90 antibodies."}}}
{"smiles": "CC(C)N(CCCn1c(Sc2cc3c(cc2I)OCO3)nc2c(N)ncnc21)C(=S)Nc1ccc(-c2c3ccc(=O)cc-3oc3cc(O)ccc23)c(C(=O)O)c1", "note": "[PU-H71-FITC2]", "values": [{"measurement": "fold more bound by tumor cells than leukocytes (CD45+CD14− cells)", "setting": "oncogenic HSP90 [1]", "result": "around 84 fold"}, {"measurement": "permeation of live cells and target binding", "setting": "MV4-11 and MOLM-13 cells; 1 μM", "result": "permeate live cells and bind to the target"}, {"measurement": "effect on viability of leukemia cells", "setting": "MV4-11 and MOLM-13 cells; MOLM-13, 1 μM, 24 h", "result": "reduce the viability of leukemia cells"}, {"measurement": "binding relative to normal lymphocytes", "setting": "oncogenic HSP90 [2]", "result": "over 4 fold"}, {"measurement": "binding to HL-60 leukemia cells", "setting": "oncogenic HSP90 [3]", "result": "low to no binding"}]}
{"smiles": "CC(C)(C)CNCCn1c(Sc2cc3c(cc2I)OCO3)nc2c(N)ncnc21", "note": "[PU-HZ151]", "values": [{"measurement": "Kp", "setting": "in vivo", "result": 2.5}, {"measurement": "lowest administered dose with significant induction of HSP70", "setting": "HSP70", "result": 10, "unit": "mg/kg"}]}
